In this assay the target is T1, Xenopus laevis Aurora B/INCENP complex (Xenopus laevis, UniProt Q6DE08).
T1 construct: equipped at the N-terminal position with a GST tag (amino acids 60-361); GST (N, cleaved yes); made in house; host or cells: E. coli BL21 (DE3)
Put plainly: Aurora-B kinase assay (radioactive enzyme inhibition assay). The class given is biochemical. The note with it: test substance at 1 μM; percentage of the positive control (maximum value without test substance). An excerpt:
Example Aurora-B Kinase Assay
A radioactive enzyme inhibition assay was developed using E. coli-expressed recombinant Xenopus laevis Aurora B wild-type protein equipped at the N-terminal position with a GST tag (amino acids 60-361) in a complex with Xenopus laevis INCENP (amino acids 790-847), which is obtained from bacteria and purified. In equivalent manner a Xenopus laevis Aurora B mutant (G96V) in a complex with Xenopus laevis INCENP^790-847 may also be used.
Expression and Purification
The coding sequence for Aurora-B^60-361 from Xenopus laevis is cloned into a modified version of pGEX-6T (Amersham Biotech) via BamHI and SalI cutting sites. The vector contains two cloning cassettes which are separated by a ribosomal binding site, allowing bi-cistronic expression. In this configuration Xenopus laevis Aurora B is expressed by the first cassette, and the Xenopus laevis INCENP^790-847 is expressed by the second cassette. The resulting vector is pAUB-IN^847.
First of all the E. coli strain BL21 (DE3) is co-transformed with pUBS520 helper plasmid and pAUB-IN^847, after which protein expression is induced using 0.3 mM IPTG at an OD600 of 0.45-0.7. The expression is then continued for approx. 12-16 h at 23-25° C. with agitation.
The bacteria are then removed by centrifuging and the pellet is lysed in lysis buffer (50 mM Tris/Cl pH 7.6, 300 mM NaCl, 1 mM DTT, 1 mM EDTA, 5% glycerol, Roche Complete Protease Inhibitor tablets) using ultrasound, using 20-30 mL lysis buffer per liter of E. coli culture. The lysed material is freed from debris by centrifugation (12000 rpm, 45-60 min, JA20 rotor). The supernatant is incubated with 300 μL of equilibrated GST Sepharose Fast Flow (Amersham Biosciences) per liter of E. coli culture for 4-5 h at 4° C. Then the column material is washed with 30 volumes of lysis buffer and then equilibrated with 30 volumes of cleavage buffer (50 mM Tris/Cl pH 7.6, 150 mM NaCl, 1 mM DTT, 1 mM EDTA). To cleave the GST tag from Aurora B, 10 units of Prescission Protease (Amersham Biosciences) are used per milligram of substrate and the mixture is incubated for 16 h at 4° C. The supernatant which contains the cleavage product is loaded onto a 6 mL Resource Q column (Amersham Biosciences) equilibrated with ion exchange buffer (50 mM Tris/Cl pH 7.6, 150 mM NaCl, 1 mM DTT, 1 mM EDTA). The Aurora B/INCENP complex is caught as it flows through, then concentrated and loaded onto a Superdex 200 size exclusion chromatography (SEC) column equilibrated with SEC buffer (10 mM Tris/Cl pH 7.6, 150 mM NaCl, 1 mM DTT, 1 mM EDTA). Fractions which contain the AuroraB/INCENP complex are collected and concentrated using Vivaspin concentrators (molecular weight exclusion 3000-5000 Da) to a final concentration of 12 mg/mL. Aliquots (e.g. 240 ng/μL) for kinase assays are transferred from this stock solution into freezing buffer (50 mM Tris/Cl pH 8.0, 150 mM NaCl, 0.1 mM EDTA, 0.03% Brij-35, 10% glycerol, 1 mM DTT) and stored at −80° C.
Test substances are placed in a polypropylene dish (96 wells, Greiner #655 201), in order to cover a concentration frame of 10 μM-0.0001 μM. The final concentration of DMSO in the assay is 5%. 30 μL of protein mix (50 mM tris/Cl pH 7.5, 25 mM MgCl2, 25 mM NaCl, 167 μM ATP, 10 ng Xenopus laevis Aurora B/INCENP complex in freezing buffer) are pipetted into the 10 μl of test substance provided in 25% DMSO and this is incubated for 15 min at RT. Then 10 μL of peptide mix (100 mM tris/Cl pH 7.5, 50 mM MgCl2, 50 mM NaCl, 5 μM NaF, 5 μM DTT, 1 μCi gamma-P33-ATP [Amersham], 50 μM substrate peptide [biotin-[…] or multimers thereof, or biotin-[…] or multimers thereof, or biotin-[…]]) are added. The reaction is incubated for 75 min (ambient temperature) and stopped by the addition of 180 μL of 6.4% trichloroacetic acid and incubated for 20 min on ice. […]

T1 sequence (Q6DE08 60-361): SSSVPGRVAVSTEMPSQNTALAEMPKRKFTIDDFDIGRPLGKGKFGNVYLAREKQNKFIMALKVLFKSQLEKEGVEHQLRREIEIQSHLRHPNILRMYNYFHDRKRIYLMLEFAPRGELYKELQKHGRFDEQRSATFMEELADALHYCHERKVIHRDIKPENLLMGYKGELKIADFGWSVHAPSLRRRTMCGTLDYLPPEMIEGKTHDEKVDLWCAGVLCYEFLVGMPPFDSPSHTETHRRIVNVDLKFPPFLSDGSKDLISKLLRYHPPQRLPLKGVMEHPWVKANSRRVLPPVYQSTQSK
T1 sequence (O13024 790-847 partner limits assumed): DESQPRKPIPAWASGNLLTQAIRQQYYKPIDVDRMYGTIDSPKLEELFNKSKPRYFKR

The term remaining activity denotes the share of the control activity or signal that is left under treatment. On to `CC(C)Nc1ccc(-c2ccc3c(c2)NC(=O)/C3=C(\Nc2ccc(C(=O)N3CCCN(C)CC3)cc2)c2ccccc2)cn1` [Example 120], for which the remaining activity at 1 µM came to 2.75%.
Turning to `CC(C)Nc1ccc(-c2ccc3c(c2)NC(=O)/C3=C(\Nc2ccc(C(=O)N3CCC(N4CCOCC4)CC3)cc2)c2ccccc2)cn1` [Example 121], the remaining activity at 1 µM was 3.31%.
Regarding `CC(C)Nc1ccc(-c2ccc3c(c2)NC(=O)/C3=C(\Nc2ccc(C(=O)N3CCC(N4CCCC4)CC3)cc2)c2ccccc2)cn1` [Example 122], the remaining activity at 1 µM stood at 4%.
As for `CC(C)Nc1ccc(-c2ccc3c(c2)NC(=O)/C3=C(\Nc2ccc(C(=O)N3CCN(C(C)C)CC3)cc2)c2ccccc2)cn1` [Example 123], the figure is 2.69%; as for `CC(C)Nc1ccc(-c2ccc3c(c2)NC(=O)/C3=C(\Nc2ccc(C(=O)N3C[C@@H](C)N[C@@H](C)C3)cc2)c2ccccc2)cn1` [Example 124], 3.38%.
Under `CC(C)Nc1ccc(-c2ccc3c(c2)NC(=O)/C3=C(\Nc2ccc(C(=O)N3CCN(CC(F)(F)F)CC3)cc2)c2ccccc2)cn1` [Example 125] stands 8.83%; under `CC(C)Nc1ccc(-c2ccc3c(c2)NC(=O)/C3=C(\Nc2ccc(C(=O)N3CCN(C4CC4)CC3)cc2)c2ccccc2)cn1` [Example 126], 5.84%; under `CC(C)Nc1ccc(-c2ccc3c(c2)NC(=O)/C3=C(\Nc2ccc(C(=O)N3CCC[C@H]3CN3CCCC3)cc2)c2ccccc2)cn1` [Example 127], 4.67%.
Turning to `CC(C)Nc1ccc(-c2ccc3c(c2)NC(=O)/C3=C(\Nc2ccc(C(=O)N3CCC(N(C)C)CC3)cc2)c2ccccc2)cn1` [Example 128], the remaining activity at 1 µM worked out at 4.34%.
Under `CC(C)Nc1ccc(-c2ccc3c(c2)NC(=O)/C3=C(\Nc2ccc(C(=O)N3CCN(C4CCOCC4)CC3)cc2)c2ccccc2)cn1` [Example 129] stands 4.55%; under `CC(C)Nc1ccc(-c2ccc3c(c2)NC(=O)/C3=C(\Nc2ccc(C(=O)N3CCC[C@@H]3CN3CCCC3)cc2)c2ccccc2)cn1` [Example 130], 1.43%; under `CC(C)Nc1ccc(-c2ccc3c(c2)NC(=O)/C3=C(\Nc2ccc(C(=O)N3C[C@H]4C[C@@H]3CN4C)cc2)c2ccccc2)cn1` [Example 131], 5.48%.
For the compound `CC(C)Nc1ccc(-c2ccc3c(c2)NC(=O)/C3=C(\Nc2ccc(C(=O)N3CCN[C@@H](C)C3)cc2)c2ccccc2)cn1` [Example 133], the remaining activity at 1 µM amounted to 0.55%.
Under `CC(C)Nc1ccc(-c2ccc3c(c2)NC(=O)/C3=C(\Nc2ccc(C(=O)NCCN(C)C)cc2)c2ccccc2)cn1` [Example 134] stands 1.43%; under `CC(C)Nc1ccc(-c2ccc3c(c2)NC(=O)/C3=C(\Nc2ccc(C(=O)N3CCN(C)CC3)cc2)c2ccccc2)cn1` [Example 135], 0.77%.
With `CC(C)Nc1ccc(-c2ccc3c(c2)NC(=O)/C3=C(\Nc2ccc(C(=O)N3CC[C@H](N(C)C)C3)cc2)c2ccccc2)cn1` [Example 136], the remaining activity at 1 µM stood at 0.48%.
Take `CC(C)Nc1ccc(-c2ccc3c(c2)NC(=O)/C3=C(\Nc2ccc(C(=O)N3CC[C@@H](N(C)C)C3)cc2)c2ccccc2)cn1` [Example 137]: the remaining activity at 1 µM stood at 0.67%.
As to `CC(C)Nc1ccc(-c2ccc3c(c2)NC(=O)/C3=C(\Nc2ccc(C(=O)N(C)CCN(C)C)cc2)c2ccccc2)cn1` [Example 138], the remaining activity at 1 µM was 0.68%.
Under `CC(C)Nc1ccc(-c2ccc3c(c2)NC(=O)/C3=C(\Nc2ccc(C(=O)N(C)C3CCN(C)CC3)cc2)c2ccccc2)cn1` [Example 139] stands 0.88%; under `CC(C)Nc1ccc(-c2ccc3c(c2)NC(=O)/C3=C(\Nc2ccc(C(=O)NC3CCN(C)CC3)cc2)c2ccccc2)cn1` [Example 140], 2.26%.
Regarding `CNC(=O)C#Cc1cc2c(cc1S(=O)(=O)c1ccc(F)cc1)/C(=C(/Nc1ccc(CN(C)C)cc1)c1ccccc1)C(=O)N2` [Example 151], the remaining activity at 1 µM came to 1.89%.
`CCNC(=O)C#Cc1cc2c(cc1S(=O)(=O)N1CC(F)(F)C1)/C(=C(/Nc1ccc(N3CCN(C)CC3)cc1)c1ccccc1)C(=O)N2` [Example 152]: the remaining activity at 1 µM is 4.33%.
For the compound `CNCC#Cc1cc2c(cc1S(=O)(=O)N1CC(F)(F)C1)/C(=C(/Nc1ccccc1)c1ccccc1)C(=O)N2` [Example 153], the remaining activity at 1 µM was 1.2%.
Consider `CN1CCN(c2ccc(N/C(=C3\C(=O)Nc4cc(C#CC(=O)NC5CCC5)c(S(=O)(=O)N5CCC(F)(F)C5)cc43)c3ccccc3)cc2)CC1` [Example 154], for which the remaining activity at 1 µM came to 2.62%.
In the case of `CN(C)Cc1ccc(N/C(=C2\C(=O)Nc3cc(C#CC(=O)NC4CCC4)c(F)cc32)c2ccccc2)cc1` [Example 155], the remaining activity at 1 µM is 8.61%.
As for `CC(C)NC(=O)C#Cc1cc2c(cc1S(=O)(=O)N1CC(F)(F)C1)/C(=C(/Nc1ccc(N3CCN(C)CC3)cc1)c1ccccc1)C(=O)N2` [Example 156], the remaining activity at 1 µM came to 3.02%.
As for `CNCC#Cc1cc2c(cc1S(=O)(=O)c1ccc(F)cc1)/C(=C(/Nc1ccccc1)c1ccccc1)C(=O)N2` [Example 157], the figure is 1.98%; as for `CNC(=O)C#Cc1cc2c(cc1F)/C(=C(/Nc1ccc(CN(C)C)cc1)c1ccccc1)C(=O)N2` [Example 158], 7.53%; as for `CN(C)Cc1ccc(N/C(=C2\C(=O)Nc3cc(C#CC(=O)NC4CC4)ccc32)c2ccccc2)cc1` [Example 159], 2.07%.
With `CCNC(=O)C#Cc1ccc2c(c1)NC(=O)/C2=C(\Nc1ccc(N2CCN(C)CC2)cc1)c1ccccc1` [Example 160], the remaining activity at 1 µM was 1.39%.
Consider `CN(C)Cc1ccc(N/C(=C2\C(=O)Nc3cc(C#CC(=O)Nc4ccccc4)ccc32)c2ccccc2)cc1` [Example 161], for which the remaining activity at 1 µM was 1.69%.
Consider `CCNC(=O)C#Cc1ccc2c(c1)NC(=O)/C2=C(\Nc1ccc(CN(C)C)cc1)c1ccccc1` [Example 162], for which the remaining activity at 1 µM was 1.65%.
As for `CN(C)Cc1ccc(N/C(=C2\C(=O)Nc3cc(C#CC(=O)NC4CCCC4)ccc32)c2ccccc2)cc1` [Example 163], the figure is 2.08%; as for `CN1CCN(c2ccc(N/C(=C3\C(=O)Nc4cc(C#CC(=O)NC5CCCC5)ccc43)c3ccccc3)cc2)CC1` [Example 164], 3.17%; as for `CN(C)Cc1ccc(N/C(=C2\C(=O)Nc3cc(C#CC(=O)NC4CCC4)ccc32)c2ccccc2)cc1` [Example 165], 2.4%.
`CN(C)Cc1ccc(N/C(=C2\C(=O)Nc3cc(C#CC(=O)NCCO)ccc32)c2ccccc2)cc1` [Example 166]: the remaining activity at 1 µM is 1.93%.
In the case of `CN(C)Cc1ccc(N/C(=C2\C(=O)Nc3cc(C#CC(=O)NCC(F)F)ccc32)c2ccccc2)cc1` [Example 167], the remaining activity at 1 µM worked out at 2.96%.
As for `O=C(C#Cc1ccc2c(c1)NC(=O)/C2=C(\Nc1ccc(CN2CCCC2)cc1)c1ccccc1)NCC(F)F` [Example 168], the figure is 1.85%.
Turning to `O=C(C#Cc1ccc2c(c1)NC(=O)/C2=C(\Nc1ccc(CN2CCCC2)cc1)c1ccccc1)NCCF` [Example 169], the remaining activity at 1 µM worked out at 1.71%.
